Results published in PMC12636036, “Precise Detection of Surgical Margin in Head and Neck Cancer Using Dual Near-Infrared Imaging of the Tumor and Tumor Microenvironment” (Biomaterials Research, 2025).

What was measured:
[1] = Biodistribution and clearance, K-FLARE NIR imaging; conditions: tumor-bearing nude mice; 100 nmol intravenous; 4 h post-injection; SBR relative to muscle
[2] = Photostability under NIR irradiation; conditions: under 630-nm NIR light; 25 μM in 10% FBS; up to 3 h
FaDu cells [3] = experiment: Cellular uptake inhibition assay; type: cell-based; conditions: n = 6
Protocol: To reveal the uptake mechanism of OCTL14 on FaDu cells, a cellular uptake inhibition assay was performed using bromsulphthalein (BSP) (Sigma-Aldrich, St. Louis, MO, USA) and corticosteroid (Sigma-Aldrich). First, the 15,000 cells were plated per well on a 24-well plate. After incubation for 48 h at 37 °C, cells were washed twice with 0.5 ml of HBSS. Then, the cells were pretreated with 250 μM BSP for 5 min or 25 μM corticosteroid for 5 min, before they were incubated with 2 μM OCTL14 for 15 min at 37 °C. To rule out the possible diffusion of OCTL14 across the plasma membrane, FaDu cells were incubated with 2 μM OCTL14 at 4 °C for 15 min. Serum-free medium was added to the control group without any inhibitors. After washing, images were acquired by Cytation 5 using a Cy5 filter. ImageJ software version 1.52p was used to measure the fluorescent intensity of FaDu cells at each condition.

FaDu cells [4] = experiment: Cell viability assay (CCK-8); type: cell-based; conditions: FaDu cells
Protocol: (§1) To evaluate the toxicity of OCTL14 and cRGD-ZW800-PEG on FaDu cells, cell viability was measured by using the Cell Counting Kit-8 (CCK-8, Dojindo Molecular Technologies Inc., Kumamoto, Japan). FaDu cells were seeded at a density of 400 cells/well in a 96-well plate, and then they were then treated with either 2, 5, 10, and 20 μM OCTL14 or 1.6, 3.1, 6.3, 12.5, 25, 50, and 100 μM cRGD-ZW800-PEG in growth medium for 24 h at 37 °C. Then, the dye and old medium were removed from all wells, and new medium were added and incubated for 24 h before 10 μl of CCK-8 solution was added to each well. After 3 h of incubation for OCTL14 and 4 h of incubation for cRGD-ZW800-PEG, absorbance was measured at 450 nm using a microplate reader. The cell survival rate for each dye was calculated using the following equation: Survival rate (%) = (Asample − Ab)/(Ac − Ab) × 100 (Asample, absorbance of sample; Ab, absorbance of blank well; Ac, absorbance of negative control). Experiments were repeated at least 3 times.

FaDu cells [5] = experiment: Cell binding assay; type: cell-based; conditions: OCTL14 20 min, cRGD-ZW800-PEG 30 min, Cy5 / Cy7 fluorescence imaging, n = 6
Protocol: To evaluate the cellular uptake of OCTL14 and cRGD-ZW800-PEG in HNSCC cells, a cell binding assay was done using FaDu cells (HTB-43), purchased from the American Type Culture Collection (Manassas, VA, USA). The cells were first cultured in complete Dulbecco’s modified Eagle’s medium (cDMEM) supplemented with 4.5 g/l glucose, L-glutamine and sodium pyruvate, 10% FBS, and 1% penicillin/streptomycin (Lonza, DE17-602E) at 37 °C in a 5% CO2 humidified chamber. Then, cells were seeded in a 24-well plate at a density of 20,000 cells/well and incubated for 24 h. After discarding old medium and washing twice with Hanks’ balanced salt solution (HBSS), the cells were incubated with OCTL14 for 20 min and with cRGD-ZW800-PEG for 30 min, respectively. The wells were washed 3 times with HBSS before fluorescence images were captured using Cy5 and Cy7 filters on Cytation 5 for OCTL14 and cRGD-ZW800-PEG, respectively.

[6] = system: FaDu tongue cancer xenograft; experiment: Intraoperative fluorescence imaging of orthotopic and ectopic FaDu tumors (TBR, histology); type: in vivo, mice; conditions: for Tumor-to-background ratio (TBR): FaDu tongue cancer xenograft, intravenous, within 4 h post-injection, OCTL14 cancerous tissue, cRGD-ZW800-PEG surrounding TME; for Localisation by histopathologic analysis: orthotopic FaDu tongue tumor, 4 h after intravenous injection, frozen sections, NIR and H&E
Protocol: To evaluate the targetability of OCTL14 and cRGD-ZW800-PEG on the orthotopic xenograft model of tongue cancer, 0.5 × 10^6 of FaDu cells in a 30-μl mixture of saline and Matrigel (1:2 ratio) were injected subepithelially into the tip of the tongue using an insulin syringe. When the size of the tongue tumor reached 2 mm, dual fluorescence imaging was performed by injecting cRGD-ZW800-PEG and OCTL14 intravenously 4 h prior to imaging. For the ectopic xenograft model of HNSCC, 0.5 × 10^6 of FaDu cells in a 50-μl mixture of saline and Matrigel (1:2 ratio) were injected subcutaneously on the lower back of the mouse. When the size of the ectopic tumor reached 3 mm, in vivo evaluation of the targetability of the 2 NIR fluorophores was performed. All the animal surgeries were performed under anesthesia with isoflurane.
The real-time fluorescence intensity of OCTL14 and cRGD-ZW800-PEG at the orthotopic and ectopic tumors was compared with the surrounding nontumor region (background signal) to evaluate the TBR. After intraoperative imaging, the fluorescence intensity of the tumor tissue was acquired using ImageJ software and divided by the fluorescence intensity of the surrounding tissue to calculate TBR for both OCTL14 and cRGD-ZW800-PEG. Quantitative time-course assessment of both orthotopic and ectopic tongue cancer was performed for both OCTL14 and cRGD-ZW800-PEG at 1, 4, 6, and 24 h post-intravenous injection. At least 3 head and neck tumor models were evaluated for the quantitative analysis of TBR.
Tumor and TME targetability of OCTL14 and cRGD-ZW800-PEG were confirmed by histology analysis on the orthotopic HNSCC xenograft model. The tumor-bearing tongue was excised from the mouse after in vivo imaging of the tumors at 4 h after intravenous injection of the 2 fluorophores, and embedded in Tissue-Tek optimal cutting temperature compound (Sakura Finetek, Torrance, CA, USA). Frozen sections were acquired and placed on slides with a cut thickness of 10 μm using a cryostat (Leica, Germany). Fluorescence images were taken for both OCTL14 and cRGD-ZW800-PEG using Cy5 filter and Cy7 filter on Cytation 5, respectively. After dual fluorescence imaging, the tissue sections were stained with hematoxylin and eosin (H&E), and bright-field images of the orthotopic tongue cancer were acquired using Cytation 5.

[7] = Serum protein binding assay, rapid equilibrium dialysis; conditions: rapid equilibrium dialysis device; 5 μM; 10% fetal bovine serum; 8 h incubation; absorbance read-out of sample and buffer chamber (Cytation 5)
[8] = Cell viability assay (CCK-8); type: cell-based
Protocol: as §1

[9] = not given; remark: listed apart in the source
[10] = not given; remark: listed apart in the source

| SMILES | Biodistribution (SBR of resected organs) [1] | Photostability: remaining initial absorbance [2] | Uptake in cold inhibition test (FaDu cells [3]; 2 μM OCTL14 at 4 °C) | Effect of corticosteroid (OCT inhibitor) on uptake of OCTL14 (FaDu cells [3]; 25 μM corticosteroid pretreatment 5 min, 2 μM OCTL14, 15 min, 37 °C, compared to control) | Effect of BSP (OATP inhibitor) on uptake of OCTL14 (FaDu cells [3]; 250 μM BSP pretreatment 5 min, 2 μM OCTL14, 15 min, 37 °C) | IC50 (FaDu cells [4]; 24 h treatment at 37 °C, then 24 h in new medium, absorbance 450 nm, n = 5, read-out: IC50 (cytotoxicity, CCK-8)) | Concentration up to which little toxicity was shown (FaDu cells [4]; CCK-8 assay, 24 h treatment) | Uptake in FaDu cells (cell binding assay) (FaDu cells [5]) | Tumor-to-background ratio (TBR) [6] | Localisation by histopathologic analysis [6] | Plasma protein binding, 8 h (%Bound) [7] | quantum yield (QY) | IC50 [8] | fluorescence maximum [9] | absorbance maximum [10] |
| --- | --- | --- | --- | --- | --- | --- | --- | --- | --- | --- | --- | --- | --- | --- | --- |
| Br.C[N+]1=C(/C=C2\C(=O)C(/C=C3/N(CCC[N+](C)(C)C)c4ccc(F)cc4C3(C)C)=C2[O-])C(C)(C)c2ccccc21.[I-] [OCTL14] | high SBR in the kidney, gallbladder, and intestine | over 90% | Negative uptake | significantly reduced the uptake | little impact | 42.1 µM | ≤ 20 µM | significantly high target affinity | > 2.0 | effectively imaged the tumor cell itself | 4.46% |  |  |  |  |
| CC1(C)C(=CC=C2CCCC(C=CC3=[N+](CCC[N+](C)(C)C)c4ccc(S(=O)(=O)O)cc4C3(C)C)=C2SCCOCCOCCC(=O)NCCCC[C@@H]2NC(=O)[C@@H](Cc3ccc(O)cc3)NC(=O)[C@H](CC(=O)O)NC(=O)CNC(=O)[C@H](CCCNC(=N)N)NC2=O)N(CCC[N+](C)(C)C)c2ccc(S(=O)(=O)O)cc21 [cRGD-ZW800-PEG] |  |  |  |  |  |  |  | limited uptake | > 1.5 | peritumoral tissue was the primary target |  | 8.52% | 45.8 µM | 809 nm | 784 nm |
